Entries after “also recorded” stand apart in the source; their conditions may differ.
Tests used:
REC-1 cells = assay: CER T cell cytotoxicity against REC-1 mCherry cells with ibrutinib (Incucyte); type: cell-based; details: for cytotoxic activity of CER T cells alone (no ibrutinib) / tumor cell killing in combination with ibrutinib: REC-1 cells
From the text: FIG. 38: CER1236 T cells have enhanced and more complete cytotoxic effect against Ibrutinib-treated REC-1 MCL cells but not untreated REC-1 MCL cells.
Ibrutinib was washed off prior to co-culture with CER T cells. […] Total fluorescence of REC-1 mCherry cells decreased as cytotoxicity occurred.

phosphatidylserine (PS) = assay: Single induction plate assay: IFN-γ by CER T cells on plate-bound phosphatidylserine (ELISA); type: cell-based; details: for IFN-γ production in response to phosphatidylserine: plate-bound PS; for IFNγ production by donor in response to increasing doses of plate-bound phosphatidylserine: three donors (31, 32, 38)
From the text: (§1) FIGS. 19A-19C: CER T cells are activated and produce IFN-γ in response to phosphatidylserine engagement in a cell-free in vitro system. FIG. 19A: IFN-γ production in response phosphatidylserine (PS). IFN-γ production was induced in CER-1236 and CER-1234 T cells stimulated with PS (FIG. 19A), but not with phosphatidylethanolamine (PE) (FIG. 19B). […] FIG. 19C: CER1236 T cells are capable of recursive stimulation in vitro. Recursive IFN-γ induction with 3 serial stimulations at the indicated time points following a 24-hour rest after the first stimulation.
FIG. 33A-33C: CER T cells are activated and produce IFN-γ in response to phosphatidylserine engagement in a cell-free in vitro system. FIG. 33A: IFN-γ production in response phosphatidylserine (PS). IFN-γ production was induced in CER-1236 and CER-1234 T cells stimulated with PS (FIG. 33A), but not with phosphatidylethanolamine (PE) (FIG. 33B). […] FIG. 33C: CER1236 T cells are capable of recursive stimulation in vitro. Recursive IFN-γ induction with 3 serial stimulations at the indicated time points following a 24-hour rest after the first stimulation.
FIG. 44 are graphs showing IFNγ production in CER1234 T cells (left) or CER1236 T cells (right) from three donors in response to titrating doses of plate-bound phosphatidylserine.
FIG. 45 are graphs showing IFNγ production in CER1234 T cells or CER1236 T cells by donor in response to increasing doses of plate-bound phosphatidylserine.
FIG. 46 are graphs showing IFNγ production in CER1234 T cells or CER1236 T cells by donor in response to increasing doses of plate-bound phosphatidylserine at day 14 post-thaw.
FIG. 47 are graphs showing T cell expansion (left), IFNγ production (center), and cell viability (right) in CER1236 T cells in response to increasing doses of plate-bound phosphatidylserine.
FIG. 48 are graphs showing T cell expansion (left), IFNγ production (center), and cell viability (right) in CER1234 T cells in response to increasing doses of plate-bound phosphatidylserine.
(§2) CER T-cell activation was assessed by measuring induction of IFN-gamma by plate- and cell-based assays. Single induction plate assay: varying concentrations of phosphatidylserine (PS) or phosphatidylethanolamine (PE), a control membrane phospholipid not recognized by wild type TIM-4 (wtTIM-4), were coated onto high-binding tissue culture plates. CER T cells were added and IFN-γ levels were measured 24 hours after ligand exposure by ELISA. EC50 concentrations were determined by nonlinear regression (agonist vs. response-variable slope (4 parameters)). Induction by recursive stimulation plate assay: CER T cells were added to phosphatidylserine coated plates (2.5-20 μg/mL PS coating). Five days later, CER T cells were transferred to uncoated plates with fresh T cell optimizer media for 24 hours. Then, CER T cells were transferred again to a fresh PS coated plate. Supernatant was collected to assess IFN-γ induction by ELISA at various timepoints during re-stimulation (24, 72, and 120 hours). Cell-based assay: cytokine induction was assessed by multiparametric ELISA using conditioned supernatants harvested after 120 hours from the cytotoxicity assay described below.
T cells obtained from three different donors were transduced with CER1234 or CER1236 and incubated on titrating doses of plate-bound phosphatidylserine.
24 hour IFNγ stimulation by plate-bound phosphatidylserine aligns with day 5 post-activation expansion for CER1236 T cells. […] 24 hour IFNγ stimulation by plate-bound phosphatidylserine aligns with day 5 post-activation expansion for CER1234 T cells.

[1] = tested on: phosphatidylethanolamine (PE); assay: Single induction plate assay: IFN-γ by CER T cells on plate-bound phosphatidylethanolamine (control); type: cell-based
From the text: as §1
FIG. 33A-33C: CER T cells are activated and produce IFN-γ in response to phosphatidylserine engagement in a cell-free in vitro system. FIG. 33A: IFN-γ production in response phosphatidylserine (PS). IFN-γ production was induced in CER-1236 and CER-1234 T cells stimulated with PS (FIG. 33A), but not with phosphatidylethanolamine (PE) (FIG. 33B). […]
CER T-cell activation was assessed by measuring induction of IFN-gamma by plate- and cell-based assays. […] CER T cells were added and IFN-γ levels were measured 24 hours after ligand exposure by ELISA. EC50 concentrations were determined by nonlinear regression (agonist vs. response-variable slope (4 parameters)). […] Cell-based assay: cytokine induction was assessed by multiparametric ELISA using conditioned supernatants harvested after 120 hours from the cytotoxicity assay described below.

Jeko1 TMEM30A−/− cells = assay: Uptake/engulfment of pHrodo-labeled JeKo-1 PS+ (TMEM30A−/−) cells by CER T cells; type: cell-based; details: for uptake/engulfment of JeKo-1 PS+ (TMEM30A−/−) tumor cell fragments: pHrodo label, in vitro co-culture
Protocol: FIG. 20: FACs and imaging-based detection of pHrodo dye-labeled tumor cell phagocytosis and endocytosis.
Statistical analysis was performed using 2-way ANOVA.

A2780 cells = details: for A2780 cells eliminated, single agent: compared to untreated; for A2780 cells eliminated, combination with niraparib: niraparib 0.5 μM; for A2780 cells eliminated, combination with niraparib / A2780 cells eliminated, combination with olaparib: after 5 days of co-culture; for A2780 cells eliminated, combination with olaparib: olaparib 1.5 μM
Protocol: FIG. 34B: At 120 hours, the ratio of cells remaining in treated samples compared to untreated A2780 samples was quantified using the incucyte data from FIG. 34A. FIG. 34C: Proliferation of CER T cells in co-culture assays.
At day 0, media was exchanged and donor T cells from three subjects (FIG. 28) transduced with CER-1234, CER-1236, or control CER-1183 (FIG. 27A) were added at various effector:target ratios to A2780 cells treated with PARPi to assess chimeric Tim4 receptor-T cell activation, cytokine production, proliferation, and cytotoxic responses. Chimeric Tim4 receptor-T cells immunophenotyping and bulk supernatant analysis was performed on day 2 and day 5 following initiation of co-culture.
CER T-cell cytotoxic function was evaluated using the Incucyte® live-cell analysis system in co-culture assays with A2780 cells. A2780 cells engineered to constitutively express mCherry were pretreated with 1.5 μM olaparib, 0.5 μM niraparib or no drug for 96 hours. CER T cells (expanded for 6 days after transduction) in T-cell optimizer media containing IL-2, IL-7, and IL-15 were co-cultured with A2780 cells at an effector:target (E:T) ratio of 1:2 in the presence of the same concentrations of olaparib or niraparib.

[2] = tested on: A2780 ovarian cancer cells; assay: Cytokine production by CER T cells co-cultured with PARP inhibitor-treated A2780 cells; type: cell-based, human; details: for TNF-α, IFN-γ, granzyme B induction: PARP inhibitor-treated A2780, E:T 1:1
Protocol: FIGS. 35A-35C: Cytokine production by CER T cells in response to co-culture with PARP inhibitor-treated A2780 ovarian cancer cells. Samples from left to right: no drug, niraparib treated, and olaparib treated. FIG. 35A-IFN-γ. FIG. 35B-TNF-α. FIG. 35C-granzyme B.
as §2

[3] = Donor 38, 24 hours after ligand exposure
[4] = Donor 41, 24 hours after ligand exposure
[5] = either drug combined, 96 hours, compared to CER-1234 with no drug

## CER-1234: chimeric Tim4 receptor: Tim4 binding domain-CD28tm-CD28-TLR2 TIR-CD3z, SEQ ID NO:18; tested as transduced T cells
REC-1 cells; BTKi treatment in combination
  cytotoxicity: > 90%
REC-1 cells
  cytotoxic activity of CER T cells alone (no ibrutinib): limited cytotoxic activity
  tumor cell killing in combination with ibrutinib: Tumor cell killing was enhanced
Phosphatidylserine (PS); [3]
  PS EC50 (IFN-γ production): 3.52 µg/mL
Phosphatidylserine (PS); [4]
  PS EC50 (IFN-γ production): 1.88 µg/mL
Phosphatidylserine (PS)
  IFN-γ production in response to phosphatidylserine: specifically produce IFN-γ in a dose-dependent manner; also recorded: produced concentration-dependent IFN-γ responses
  IFNγ production by donor in response to increasing doses of plate-bound phosphatidylserine: shows lower activation for donors 32 and 38
[1]
  IFN-γ production in response to phosphatidylethanolamine: but not to phosphatidylethanolamine (PE)
Jeko1 TMEM30A−/− cells
  uptake/engulfment of JeKo-1 PS+ (TMEM30A−/−) tumor cell fragments: increased uptake of JeKo-1 PS^+ tumor cell fragments
A2780 cells
  cytotoxic activity of CER T cells alone against A2780 cells: limited cytotoxic activity
  A2780 cells eliminated, single agent: 39%
  A2780 cells eliminated, combination with niraparib: 58%
  A2780 cells eliminated, combination with olaparib: 66%
[2]
  TNF-α, IFN-γ, granzyme B induction: induced
[2]; [5]
  Interferon-γ increase: 7 fold
  granzyme B increase: 5-7 fold

## CER-1236: chimeric Tim4 receptor: Tim4 binding domain-CD28tm-CD28-CD3z-TLR2 TIR, SEQ ID NO:19; tested as transduced T cells
REC-1 cells
  cytotoxic activity of CER T cells alone (no ibrutinib): Some CER1236 T cytotoxicity against untreated REC-1 cells is observed
  tumor cell killing in combination with ibrutinib: synergize with ibrutinib to enhance killing of REC-1 mantle cell lymphoma cells
Phosphatidylserine (PS); [3]
  PS EC50 (IFN-γ production): 4.74 µg/mL
Phosphatidylserine (PS); [4]
  PS EC50 (IFN-γ production): 3.16 µg/mL
Phosphatidylserine (PS); day 14 post-thaw
  IFNγ production by donor on plate-bound phosphatidylserine at day 14 post-thaw: produces more IFNγ across all donors compared to CER1234 T cells
Phosphatidylserine (PS)
  IFN-γ production in response to phosphatidylserine: specifically produce IFN-γ in a dose-dependent manner; also recorded: produced concentration-dependent IFN-γ responses
  IFNγ production by donor in response to increasing doses of plate-bound phosphatidylserine: shows strong activation
[1]
  IFN-γ production in response to phosphatidylethanolamine: but not to phosphatidylethanolamine (PE)
Jeko1 TMEM30A−/− cells; compared to wtTim-4, CER1250 and CER1236+actin polymerization inhibitor
  phagocytic index (frequency and magnitude of uptake): Higher frequency and magnitude of uptake
Jeko1 TMEM30A−/− cells
  uptake/engulfment of JeKo-1 PS+ (TMEM30A−/−) tumor cell fragments: increased uptake of JeKo-1 PS^+ tumor cell fragments; also recorded: exhibited increased engulfment of Jeko1 TMEM30A^−/− cells
A2780 cells
  cytotoxic activity of CER T cells alone against A2780 cells: limited cytotoxic activity
  A2780 cells eliminated, single agent: 19%
  A2780 cells eliminated, combination with niraparib: 81%
  A2780 cells eliminated, combination with olaparib: 73%
[2]
  TNF-α, IFN-γ, granzyme B induction: induced

Reference: patent US20250127896A1, “CHIMERIC TIM4 RECEPTORS AND USES THEREOF” (CERO THERAPEUTICS HOLDINGS, INC., priority 2021, published 2025)
